# Assay results: patent US6720346B2, “Thiazole benzamide derivatives and pharmaceutical compositions for inhibiting cell proliferation” (Agouron Pharmaceuticals, Inc., priority 2001, dated 2004)
# Counter-ions that a name gives are not always drawn.
# Tests used:
# [1] = molecular target: T1, CDK2/cyclin A (Homo sapiens, UniProt P24941); assay: Inhibition of CDK2/cyclin A retinoblastoma kinase activity (Ki; % inhibition); type: biochemical
# T1 construct: made in house; host or cells: CDK2: insect cells (baculovirus); cyclin A: E. coli
# How it was run: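 Radiometric filter assay of CDK2/proteolyzed cyclin A (baculovirus-expressed human CDK2, 10 or 19 nM) phosphorylating an Rb fragment with 25 μM [³²P/³³P]ATP in pH 7.4 HEPES, 2% DMSO, at 30 °C for 60 or 75 min under initial-rate conditions. Library compounds screened at 30 nM for % inhibition; apparent Ki from concentration series fit to competitive or tight-binding inhibition equations.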
# [2] = molecular target: T2, human CDK4/cyclin D3 (Homo sapiens, UniProt P11802); assay: Inhibition of CDK4/cyclin D retinoblastoma kinase activity (Ki; % inhibition); type: biochemical
# T2 construct: made in house; host or cells: insect cells co-infected with baculovirus vectors
# T2 sequence (P11802 whole entry): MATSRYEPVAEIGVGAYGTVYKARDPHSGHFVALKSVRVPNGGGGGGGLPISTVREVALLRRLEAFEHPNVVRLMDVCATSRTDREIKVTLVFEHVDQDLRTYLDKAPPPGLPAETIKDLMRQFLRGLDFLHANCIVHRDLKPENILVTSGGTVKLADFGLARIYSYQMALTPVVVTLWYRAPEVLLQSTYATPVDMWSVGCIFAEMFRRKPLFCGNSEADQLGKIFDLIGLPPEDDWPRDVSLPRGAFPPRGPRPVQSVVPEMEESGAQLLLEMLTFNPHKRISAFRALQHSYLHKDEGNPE
# T2 sequence (P30281 1-264 partner limits assumed): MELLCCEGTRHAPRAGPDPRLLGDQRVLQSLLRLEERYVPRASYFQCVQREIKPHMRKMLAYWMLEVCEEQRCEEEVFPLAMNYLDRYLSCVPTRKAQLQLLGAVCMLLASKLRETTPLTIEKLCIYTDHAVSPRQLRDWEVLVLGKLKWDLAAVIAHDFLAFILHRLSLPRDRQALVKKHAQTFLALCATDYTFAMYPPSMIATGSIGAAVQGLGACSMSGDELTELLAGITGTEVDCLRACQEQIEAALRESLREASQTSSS
# How it was run: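 Insect-cell-expressed CDK4 with truncated cyclin D3 (1-264), 5 nM, phosphorylating His-tagged Rb fragment (386-928) with 25 μM [32/33P]ATP at pH 7.4, 30 °C, 20 min (60 min for tight binders). Filter capture, phosphorimager read; % inhibition at 30 nM compound, Ki from competitive or tight-binding fits.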
# [3] = system: HCT-116 cell line; assay: Inhibition of cell growth, MTT tetrazolium salt assay; type: cell-based
# How it was run: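 Growth inhibition was read as MTT-formazan absorbance at 540 nm, after 4 h with 0.2 mg/mL MTT. Before that, HCT-116 cells had been exposed 3–5 days at 37 °C to compounds in 0.5% (v/v) DMSO, added 4 h after plating. 50% and 90% inhibitory concentrations were taken from semi-log concentration–inhibition plots versus vehicle controls.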
# [4] = HCT-116 cells, 0.25 μM compound
smiles,measurement,setting,value
Nc1nc(Nc2ccc(C(=O)N3CCN(c4ccncc4)CC3)cc2)sc1C(=O)c1c(F)cccc1F [Example G311],CDK2 % Inhibition at 0.03 μM,[1]; 0.03 μM compound,−1%
same,CDK4 % Inhibition at 0.03 μM,[2]; 0.03 μM compound,46%
same,HCT-116 % Inhibition at 0.1 μM,"[3]; HCT-116 cells, 0.1 μM compound",5%
same,HCT-116 % Inhibition at 0.25 μM,[3]; [4],43%
Cc1cccc(N2CCN(C(=O)c3ccc(Nc4nc(N)c(C(=O)c5c(F)cccc5F)s4)cc3)CC2C)c1 (centres unmarked) [Example G308],CDK2 % Inhibition at 0.03 μM,[1]; 0.03 μM compound,−23%
same,CDK4 % Inhibition at 0.03 μM,[2]; 0.03 μM compound,5%
same,HCT-116 % Inhibition at 0.1 μM,"[3]; HCT-116 cells, 0.1 μM compound",5%
same,HCT-116 % Inhibition at 0.25 μM,[3]; [4],60%
Nc1nc(Nc2ccc(C(=O)NCCc3ccc(Cl)c(Cl)c3)cc2)sc1C(=O)c1c(F)cccc1F [Example G211],CDK2 % Inhibition at 0.03 μM,[1]; 0.03 μM compound,23%
same,CDK4 % Inhibition at 0.03 μM,[2]; 0.03 μM compound,23%
same,HCT-116 % Inhibition at 0.1 μM,"[3]; HCT-116 cells, 0.1 μM compound",13%
same,HCT-116 % Inhibition at 0.25 μM,[3]; [4],45%
CC(NC(=O)c1ccc(Nc2nc(N)c(C(=O)c3c(F)cccc3F)s2)cc1)C1CCCCC1 (centres unmarked) [Example G300],CDK2 % Inhibition at 0.03 μM,"[1]; 0.03 μM compound, 0.03 µM",−18%
same,CDK4 % Inhibition at 0.03 μM,"[2]; 0.03 μM compound, 0.03 µM",−10%
same,HCT-116 % Inhibition at 0.1 μM,"[3]; HCT-116 cells, 0.1 μM compound, 0.1 µM",18%
same,HCT-116 % Inhibition at 0.25 μM,"[3]; HCT-116 cells, 0.25 μM compound, 0.25 µM",70%
CC1CCCCN1CCCNC(=O)c1ccc(Nc2nc(N)c(C(=O)c3c(F)cccc3F)s2)cc1 (centres unmarked) [Example G303],CDK2 % Inhibition at 0.03 μM,[1]; 0.03 μM compound,2%
same,CDK4 % Inhibition at 0.03 μM,[2]; 0.03 μM compound,45%
same,HCT-116 % Inhibition at 0.1 μM,"[3]; HCT-116 cells, 0.1 μM compound",18%
same,HCT-116 % Inhibition at 0.25 μM,[3]; [4],72%
COc1ccc(NC(=O)c2ccc(Nc3nc(N)c(C(=O)c4c(F)cccc4F)s3)cc2)cc1F [Example G347],CDK2 % Inhibition at 0.03 μM,[1]; 0.03 μM compound,13%
same,CDK4 % Inhibition at 0.03 μM,[2]; 0.03 μM compound,15%
same,HCT-116 % Inhibition at 0.1 μM,"[3]; HCT-116 cells, 0.1 μM compound",21%
same,HCT-116 % Inhibition at 0.25 μM,[3]; [4],53%
CSCCC(O)NC(=O)c1ccc(Nc2nc(N)c(C(=O)c3c(F)cccc3F)s2)cc1 (centres unmarked) [Example G108],CDK2 % Inhibition at 0.03 μM,[1]; at 0.03 μM,−5%
same,CDK4 % Inhibition at 0.03 μM,[2]; at 0.03 μM,12%
same,HCT-116 % Inhibition at 0.1 μM,"[3]; HCT-116, at 0.1 μM",0%
same,HCT-116 % Inhibition at 0.25 μM,"[3]; HCT-116, at 0.25 μM",60%
CCOC(CNC(=O)c1ccc(Nc2nc(N)c(C(=O)c3c(F)cccc3F)s2)cc1)OCC [Example G344],CDK2 % Inhibition at 0.03 μM,[1]; 0.03 μM compound,25%
same,CDK4 % Inhibition at 0.03 μM,[2]; 0.03 μM compound,18%
same,HCT-116 % Inhibition at 0.1 μM,"[3]; HCT-116 cells, 0.1 μM compound",24%
same,HCT-116 % Inhibition at 0.25 μM,[3]; [4],50%
CC(CCc1ccccc1)NC(=O)c1ccc(Nc2nc(N)c(C(=O)c3c(F)cccc3F)s2)cc1 (centres unmarked) [Example G133],CDK2 % Inhibition at 0.03 μM,[1]; at 0.03 μM,−6%
same,CDK4 % Inhibition at 0.03 μM,[2]; at 0.03 μM,13%
same,HCT-116 % Inhibition at 0.1 μM,"[3]; HCT-116, at 0.1 μM",0%
same,HCT-116 % Inhibition at 0.25 μM,"[3]; HCT-116, at 0.25 μM",47%
"CN(C)CC(C)(C)NC(=O)c1ccc(Nc2nc(N)c(C(=O)c3c(F)cccc3F)s2)cc1 [Example A61, 4-[4-Amino-5-(2,6-difluoro-benzoyl)-thiazol-2-ylamino]-N-(2-dimethylamino-1,1-dimethyl-ethyl)-benzamide Dihydrochloride]",Ki,"[1]; apparent Ki, CDK2/cyclin A, Rb substrate",37.5 nM
same,Ki,"[2]; apparent Ki, CDK4/cyclin D3, Rb substrate",232 nM
same,IC50,"[3]; Homo sapiens, HCT-116, 120 h, MTT, three to five days",220 nM
CC(C)(C)C1CCC(NC(=O)c2ccc(Nc3nc(N)c(C(=O)c4c(F)cccc4F)s3)cc2)CC1 (centres unmarked) [Example G267],CDK2 % Inhibition at 0.03 μM,[1]; 0.03 μM compound,−23%
same,CDK4 % Inhibition at 0.03 μM,[2]; 0.03 μM compound,−14%
same,HCT-116 % Inhibition at 0.1 μM,"[3]; HCT-116 cells, 0.1 μM compound",24%
same,HCT-116 % Inhibition at 0.25 μM,[3]; [4],44%
CN(Cc1ccccc1)C(=O)c1ccc(Nc2nc(N)c(C(=O)c3c(F)cccc3F)s2)cc1 [Example G3],CDK2 % Inhibition at 0.03 μM,[1]; at 0.03 μM,−1%
same,CDK4 % Inhibition at 0.03 μM,[2]; at 0.03 μM,4%
same,HCT-116 % Inhibition at 0.25 μM,"[3]; HCT-116, at 0.25 μM",50%
C=C(C)CN(C)C(=O)c1ccc(Nc2nc(N)c(C(=O)c3c(F)cccc3F)s2)cc1 [Example G182],CDK2 % Inhibition at 0.03 μM,[1]; at 0.03 μM,−2%
same,CDK4 % Inhibition at 0.03 μM,[2]; at 0.03 μM,6%
same,HCT-116 % Inhibition at 0.1 μM,"[3]; HCT-116, at 0.1 μM",23%
same,HCT-116 % Inhibition at 0.25 μM,"[3]; HCT-116, at 0.25 μM",52%
Nc1nc(Nc2ccc(C(=O)N3CCc4ccccc4C3)cc2)sc1C(=O)c1c(F)cccc1F [Example G79],CDK2 % Inhibition at 0.03 μM,[1]; at 0.03 μM,2%
same,CDK4 % Inhibition at 0.03 μM,[2]; at 0.03 μM,10%
same,HCT-116 % Inhibition at 0.25 μM,"[3]; HCT-116, at 0.25 μM",51%
